For 19 compounds, Emax and EC50 results are on record in patent US9796733B2, “Imidazo-pyrazine derivatives useful as soluble guanylate cyclase activators” (Merck Sharp & Dohme Corp., priority 2014, dated 2017).

This assay has as its target T1, sGC α1/β1 heterodimer (Homo sapiens, UniProt Q02108+Q02153).
T1 construct: expressed in transfected cells; host or cells: CHO-K1 (clone #7, CHO-K1/sGC)
T1 sequence (Q02108 1-690): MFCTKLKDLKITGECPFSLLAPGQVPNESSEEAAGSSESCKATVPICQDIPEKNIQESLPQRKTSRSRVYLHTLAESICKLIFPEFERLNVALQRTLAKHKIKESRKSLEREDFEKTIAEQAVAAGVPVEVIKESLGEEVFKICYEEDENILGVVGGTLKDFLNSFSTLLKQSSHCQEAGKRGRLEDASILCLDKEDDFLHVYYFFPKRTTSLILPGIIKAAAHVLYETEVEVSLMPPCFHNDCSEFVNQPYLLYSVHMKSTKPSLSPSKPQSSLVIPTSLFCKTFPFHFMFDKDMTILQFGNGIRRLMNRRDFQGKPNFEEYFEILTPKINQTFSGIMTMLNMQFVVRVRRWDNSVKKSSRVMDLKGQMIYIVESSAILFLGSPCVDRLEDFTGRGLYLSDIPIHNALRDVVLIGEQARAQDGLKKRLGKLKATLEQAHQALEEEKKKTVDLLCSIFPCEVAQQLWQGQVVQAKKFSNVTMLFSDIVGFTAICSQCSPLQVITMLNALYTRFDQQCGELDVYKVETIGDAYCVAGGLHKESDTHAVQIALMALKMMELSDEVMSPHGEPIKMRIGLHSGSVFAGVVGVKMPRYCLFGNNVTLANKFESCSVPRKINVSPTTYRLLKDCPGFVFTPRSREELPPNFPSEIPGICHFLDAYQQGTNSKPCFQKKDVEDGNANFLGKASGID
T1 sequence (Q02153 1-619): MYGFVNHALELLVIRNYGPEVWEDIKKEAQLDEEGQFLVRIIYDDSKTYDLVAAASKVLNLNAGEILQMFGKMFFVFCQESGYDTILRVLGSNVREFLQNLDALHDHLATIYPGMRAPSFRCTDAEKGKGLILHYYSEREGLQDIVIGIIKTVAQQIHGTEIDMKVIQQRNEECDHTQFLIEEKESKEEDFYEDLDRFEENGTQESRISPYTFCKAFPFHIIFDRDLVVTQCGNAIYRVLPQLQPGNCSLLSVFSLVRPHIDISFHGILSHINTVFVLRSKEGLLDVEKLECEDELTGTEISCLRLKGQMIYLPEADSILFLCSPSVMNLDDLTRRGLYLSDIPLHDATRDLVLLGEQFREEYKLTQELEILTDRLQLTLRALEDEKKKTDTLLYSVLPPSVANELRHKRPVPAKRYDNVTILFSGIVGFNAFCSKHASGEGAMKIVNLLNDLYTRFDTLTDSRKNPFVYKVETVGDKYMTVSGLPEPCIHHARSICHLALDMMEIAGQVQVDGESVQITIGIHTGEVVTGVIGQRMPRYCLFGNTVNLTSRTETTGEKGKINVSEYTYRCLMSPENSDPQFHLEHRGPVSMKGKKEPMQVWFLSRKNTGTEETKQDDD
As to the kind of experiment: Cell-based sGC functional assay (CASA assay): cGMP generation in CHO-K1/sGC cells, HTRF detection. Conditions: for Emax: CHO-K1, percent activation relative to standard Compound A in CHO-K1/sGC cells, read-out: % Act.; for EC50: inflection point (IP) of cGMP generation in CHO-K1/sGC cells, 4P fit, activity expressed as percentage of Compound A. In outline: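 Stable CHO-K1/sGC cells in EBSS buffer with 5 mM MgCl2, 0.05% BSA and 0.5 mM IBMX were incubated with compound (2.5% DMSO final) ±1 μM DETA-NO for 1 hr at 37° C. cGMP was measured by HTRF. Activation is expressed as % of reference HDA Compound A maximum, with IP and max fold induction from a 4P fit.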
Background: TR-FRET usually uses a lanthanide donor and a delayed reading to cut background.

What is called EC50 is the midpoint of the concentration-response curve. For `CC1(c2ccc(OC(F)F)cn2)C(=O)Nc2nc(-c3cn4ccnc4c(CC4CCC4)n3)nc(N)c21` (centres unmarked) [Example 117A, 4-amino-2-(8-(cyclobutylmethyl)imidazo [1,2-a]pyrazin-6-yl)-5-(5-(difluoromethoxy)pyridin-2-yl)-5-methyl-5H-pyrrolo[2,3-d]pyrimidin-6(7H)-one], the Emax is 103% and a half-maximal response (EC50) required 0.033 µM.

Turning to `CC1(c2ccc(C(F)(F)F)cn2)C(=O)Nc2nc(-c3cn4ccnc4c(CC4CCC4)n3)nc(N)c21` (centres unmarked) [Example 119B, 4-amino-2-(8-(cyclobutylmethyl)imidazo [1,2-a]pyrazin-6-yl)-5-methyl-5-(5-(trifluoromethyl)pyridin-2-yl)-5H-pyrrolo[2,3-d]pyrimidin-6(7H)-one], the Emax is 121% and a half-maximal response (EC50) required 0.161 µM.

As for `CC(C)(C)CCc1nc(-c2nc(N)c3c(n2)NC(=O)C3(C)c2ccc(Cl)cc2)cn2ccnc12` (centres unmarked) [Example 120A, 4-amino-5-(4-chlorophenyl)-2-(8-(3,3-dimethylbutyl)imidazo[1,2-a]pyrazin-6-yl)-5-methyl-5H-pyrrolo[2,3-d]pyrimidin-6(7H)-one], the Emax stood at 112% and the EC50 turned out to be 0.031 µM.

As for `CC(C)(C)CCc1nc(-c2nc(N)c3c(n2)NC(=O)C3(C)c2ccc(F)cc2)cn2ccnc12` (centres unmarked) [Example 121A, 4-amino-2-(8-(3,3-dimethylbutyl)imidazo[1,2-a]pyrazin-6-yl)-5-(4-fluorophenyl)-5-methyl-5H-pyrrolo[2,3-d]pyrimidin-6(7H)-one], the Emax worked out at 145% and it took 0.056 µM to reach a half-maximal effect (EC50).

Take `CC(C)(C)CCc1nc(-c2nc(N)c3c(n2)NC(=O)C3(C)c2ccc(F)cn2)cn2ccnc12` (centres unmarked) [Example 122B, 4-amino-2-(8-(3,3-dimethylbutyl)imidazo[1,2-a]pyrazin-6-yl)-5-(5-fluoropyridin-2-yl)-5-methyl-5H-pyrrolo[2,3-d]pyrimidin-6(7H)-one]: the Emax stood at 119% and the midpoint of the response, the EC50, lay at 0.092 µM.

As to `CC(C)(C)CCc1nc(-c2nc(N)c3c(n2)NC(=O)C3(C)c2ccc(Cl)cn2)cn2ccnc12` (centres unmarked) [Example 123A, 4-amino-5-(5-chloropyridin-2-yl)-2-(8-(3,3-dimethylbutyl)imidazo[1,2-a]pyrazin-6-yl)-5-methyl-5H-pyrrolo[2,3-d]pyrimidin-6(7H)-one], the Emax came to 105% and the EC50 turned out to be 0.061 µM.

For `CC(C)Cc1nc(-c2nc(N)c3c(n2)NC(=O)C3(C)c2ccc(Cl)cn2)cn2ccnc12` (centres unmarked) [Example 125A, 4-amino-5-(5-chloropyridin-2-yl)-2-(8-isobutylimidazo[1,2-a]pyrazin-6-yl)-5-methyl-5H-pyrrolo[2,3-d]pyrimidin-6(7H)-one], the Emax was 97% and the half-maximal effective concentration (EC50) worked out at 0.041 µM.

Take `CC(C)Cc1nc(-c2nc(N)c3c(n2)NC(=O)C3(c2ccc(Cl)cn2)C2CC2)cn2ccnc12` (centres unmarked) [Example 126B, 4-amino-5-(5-chloropyridin-2-yl)-5-cyclopropyl-2-(8-isobutylimidazo[1,2-a]pyrazin-6-yl)-5H-pyrrolo[2,3-d]pyrimidin-6(7H)-one]: the Emax is 160% and the response was half-maximal at 0.242 µM (EC50).

Consider `CC(C)Cc1nc(-c2nc(N)c3c(n2)NC(=O)C3(c2ccc(C(F)(F)F)cn2)C2CC2)cn2ccnc12` (centres unmarked) [Example 127A, 4-amino-5-cyclopropyl-2-(8-isobutylimidazo[1,2-a]pyrazin-6-yl)-5-(5-(trifluoromethyl)pyridin-2-yl)-5H-pyrrolo[2,3-d]pyrimidin-6(7H)-one], for which the Emax amounted to 105% and the EC50 came out at 0.518 µM.

`CC(C)Cc1nc(-c2nc(N)c3c(n2)NC(=O)C3(C)c2ccc(C(F)(F)F)cc2)cn2ccnc12` (centres unmarked) [Example 128B, 4-amino-2-(8-isobutylimidazo[1,2-a]pyrazin-6-yl)-5-methyl-5-(4-(trifluoromethyl)phenyl)-5H-pyrrolo[2,3-d]pyrimidin-6(7H)-one]: the Emax is 108% and the EC50 is 0.164 µM.

Turning to `CC(C)Cc1nc(-c2nc(N)c3c(n2)NC(=O)C3(C)c2ccc(OC(F)F)cn2)cn2ccnc12` (centres unmarked) [Example 130A, 4-amino-5-(5-(difluoromethoxy)pyridin-2-yl)-2-(8-isobutylimidazo[1,2-a]pyrazin-6-yl)-5-methyl-5H-pyrrolo[2,3-d]pyrimidin-6(7H)-one], the Emax was 119% and the EC50 came out at 0.324 µM.

As for `CCCCc1nc(-c2nc(N)c3c(n2)NC(=O)C3(c2ccc(C(F)(F)F)cn2)C2CC2)cn2ccnc12` (centres unmarked) [Example 133A, 4-amino-2-(8-butylimidazo[1,2-a]pyrazin-6-yl)-5-cyclopropyl-5-(5-(trifluoromethyl)pyridin-2-yl)-5H-pyrrolo[2,3-d]pyrimidin-6(7H)-one], the Emax came to 129% and the half-maximal effective concentration (EC50) stood at 0.037 µM.

As to `CC1(c2cc(F)cc(F)c2)C(=O)Nc2nc(-c3cn4ccnc4cn3)nc(N)c21` (centres unmarked) [Example 142B, 4-amino-5-(3,5-difluorophenyl)-2-(imidazo[1,2-a]pyrazin-6-yl)-5-methyl-5H-pyrrolo[2,3-d]pyrimidin-6(7H)-one], the Emax was 166% and a half-maximal response (EC50) required 0.667 µM.

In the case of `CC1(c2ccc(OC(F)(F)F)cc2)C(=O)Nc2nc(-c3cn4ccnc4cn3)nc(N)c21` (centres unmarked) [Example 145A, 4-amino-2-(imidazo[1,2-a]pyrazin-6-yl)-5-methyl-5-(4-(trifluoromethoxy)phenyl)-5H-pyrrolo[2,3-d]pyrimidin-6(7H)-one], the Emax is 96% and the EC50 came to 0.385 µM.

With `Nc1nc(-c2cn3ccnc3cn2)nc2c1C(c1ccc(Cl)cc1)(C1CC1)C(=O)N2` (centres unmarked) [Example 146B, 4-amino-5-(4-chlorophenyl)-5-cyclopropyl-2-(imidazo[1,2-a]pyrazin-6-yl)-5H-pyrrolo[2,3-d]pyrimidin-6(7H)-one], the Emax worked out at 95% and the concentration giving a half-maximal response (EC50) stood at 0.461 µM.

Take `CC1(c2ccc(F)cc2)C(=O)Nc2nc(-c3cn4cc(C(F)(F)F)nc4c(Cc4ccccc4F)n3)nc(N)c21` (centres unmarked) [Example 147A, 4-amino-2-(8-(2-fluorobenzyl)-2-(trifluoromethyl)imidazo[1,2-a]pyrazin-6-yl)-5-(4-fluorophenyl)-5-methyl-5H-pyrrolo[2,3-d]pyrimidin-6(7H)-one]: the Emax is 120% and the concentration giving a half-maximal response (EC50) was found to be 0.012 µM.

In the case of `CC1(c2ccc(F)cc2)C(=O)Nc2nc(-c3cn4cc(C(F)(F)F)nc4c(Cc4cccc(F)c4F)n3)nc(N)c21` (centres unmarked) [Example 148A, 4-amino-2-(8-(2,3-difluorobenzyl)-2-(trifluoromethyl)imidazo[1,2-a]pyrazin-6-yl)-5-(4-fluorophenyl)-5-methyl-5H-pyrrolo[2,3-d]pyrimidin-6(7H)-one], the Emax was found to be 148% and a half-maximal effect (EC50) was put at 0.024 µM.

With `CC1(c2ccc(F)cc2)C(=O)Nc2nc(-c3cn4cc(C(F)(F)F)nc4c(Cc4cccc(F)c4)n3)nc(N)c21` (centres unmarked) [Example 149A, 4-amino-2-(8-(3-fluorobenzyl)-2-(trifluoromethyl)imidazo[1,2-a]pyrazin-6-yl)-5-(4-fluorophenyl)-5-methyl-5H-pyrrolo[2,3-d]pyrimidin-6(7H)-one], the Emax worked out at 111% and it took 0.022 µM to reach a half-maximal effect (EC50).

For the compound `CC1(c2ccc(Cl)cc2)C(=O)Nc2nc(-c3cn4cc(C(F)(F)F)nc4c(Cc4cccc(F)c4)n3)nc(N)c21` (centres unmarked) [Example 150A, 4-amino-5-(4-chlorophenyl)-2-(8-(3-fluorobenzyl)-2-(trifluoromethyl)imidazo[1,2-a]pyrazin-6-yl)-5-methyl-5H-pyrrolo[2,3-d]pyrimidin-6(7H)-one], the Emax is 122% and the concentration giving a half-maximal response (EC50) came to 0.029 µM.
